{"source": "patent US20070149456A1", "about": "“Epithelial sodium channel inhibiting agents and uses therefor” (University of Pittsburgh, priority 2005, published 2007)", "key": {"[1]": {"biological_target": "T1, endogenous ENaC in HAE cells (Homo sapiens, UniProt P37088+P51168+P51170)", "T1 construct": "endogenous in cells; host or cells: primary human airway (bronchial) epithelial cells from transplant or donor lungs", "T1 sequence (P37088 1-178)": "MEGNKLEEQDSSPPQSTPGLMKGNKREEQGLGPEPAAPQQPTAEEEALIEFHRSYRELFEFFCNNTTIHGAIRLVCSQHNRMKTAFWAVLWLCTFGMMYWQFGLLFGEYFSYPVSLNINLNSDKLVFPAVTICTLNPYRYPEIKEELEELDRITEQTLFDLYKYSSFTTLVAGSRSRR", "T1 sequence (P37088 205-669)": "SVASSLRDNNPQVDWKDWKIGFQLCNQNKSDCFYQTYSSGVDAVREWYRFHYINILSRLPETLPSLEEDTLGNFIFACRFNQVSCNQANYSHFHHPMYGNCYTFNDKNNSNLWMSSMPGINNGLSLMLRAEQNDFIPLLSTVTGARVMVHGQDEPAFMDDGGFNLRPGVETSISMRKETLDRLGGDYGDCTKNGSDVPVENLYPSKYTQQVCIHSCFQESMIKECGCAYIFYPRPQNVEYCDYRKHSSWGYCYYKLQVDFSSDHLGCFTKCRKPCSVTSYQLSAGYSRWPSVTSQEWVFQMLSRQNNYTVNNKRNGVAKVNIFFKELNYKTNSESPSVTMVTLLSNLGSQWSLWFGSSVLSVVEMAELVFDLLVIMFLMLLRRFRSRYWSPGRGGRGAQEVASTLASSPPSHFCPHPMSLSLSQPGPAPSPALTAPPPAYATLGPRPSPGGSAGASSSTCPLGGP", "T1 sequence (P51168 whole entry)": "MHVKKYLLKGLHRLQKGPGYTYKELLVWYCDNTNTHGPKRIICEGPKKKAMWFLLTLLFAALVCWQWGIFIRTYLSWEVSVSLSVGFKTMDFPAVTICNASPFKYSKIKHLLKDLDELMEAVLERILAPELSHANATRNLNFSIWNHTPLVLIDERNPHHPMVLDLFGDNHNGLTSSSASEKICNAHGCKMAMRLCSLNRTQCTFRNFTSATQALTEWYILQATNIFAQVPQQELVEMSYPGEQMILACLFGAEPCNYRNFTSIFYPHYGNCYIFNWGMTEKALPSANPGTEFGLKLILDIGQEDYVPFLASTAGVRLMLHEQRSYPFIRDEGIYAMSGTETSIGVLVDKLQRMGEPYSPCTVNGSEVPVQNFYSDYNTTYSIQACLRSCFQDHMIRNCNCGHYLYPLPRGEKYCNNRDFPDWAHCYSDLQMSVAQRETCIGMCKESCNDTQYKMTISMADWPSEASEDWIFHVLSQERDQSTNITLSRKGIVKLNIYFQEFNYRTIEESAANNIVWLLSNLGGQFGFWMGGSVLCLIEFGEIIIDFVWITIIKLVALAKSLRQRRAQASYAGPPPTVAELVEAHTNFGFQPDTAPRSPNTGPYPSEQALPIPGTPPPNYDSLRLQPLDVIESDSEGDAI", "T1 sequence (P51170 1-138)": "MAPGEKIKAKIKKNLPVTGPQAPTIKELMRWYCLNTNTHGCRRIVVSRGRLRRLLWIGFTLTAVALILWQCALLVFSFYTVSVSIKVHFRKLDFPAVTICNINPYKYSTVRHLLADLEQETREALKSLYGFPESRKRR", "T1 sequence (P51170 182-649)": "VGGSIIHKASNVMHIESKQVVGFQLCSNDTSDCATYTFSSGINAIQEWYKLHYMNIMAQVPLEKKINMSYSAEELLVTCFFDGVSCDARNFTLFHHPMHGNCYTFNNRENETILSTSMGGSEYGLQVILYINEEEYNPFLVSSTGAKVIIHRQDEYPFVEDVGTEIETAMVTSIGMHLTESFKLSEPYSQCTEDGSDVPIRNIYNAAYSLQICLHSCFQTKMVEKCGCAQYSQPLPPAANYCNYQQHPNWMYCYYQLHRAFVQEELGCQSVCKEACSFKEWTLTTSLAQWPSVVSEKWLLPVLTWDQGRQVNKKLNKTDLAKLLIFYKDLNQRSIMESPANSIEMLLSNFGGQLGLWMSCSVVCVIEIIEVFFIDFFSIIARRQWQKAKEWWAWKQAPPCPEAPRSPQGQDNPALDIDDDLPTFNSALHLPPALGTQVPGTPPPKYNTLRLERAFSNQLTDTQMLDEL", "conditions": "human airway cells; stated jointly with mouse CCD; Carattino 2006; read-out: IC50, inhibition of ENaC activity; cited from earlier work"}, "[2]": {"biological_target": "T2, wild-type ENaC co-expressed with prostasin (Mus musculus, UniProt Q61180+Q9WU38+Q9WU39)", "T2 construct": "expressed in transfected cells; host or cells: Xenopus laevis oocytes (cRNA co-injection)", "T2 sequence (Q61180 1-205)": "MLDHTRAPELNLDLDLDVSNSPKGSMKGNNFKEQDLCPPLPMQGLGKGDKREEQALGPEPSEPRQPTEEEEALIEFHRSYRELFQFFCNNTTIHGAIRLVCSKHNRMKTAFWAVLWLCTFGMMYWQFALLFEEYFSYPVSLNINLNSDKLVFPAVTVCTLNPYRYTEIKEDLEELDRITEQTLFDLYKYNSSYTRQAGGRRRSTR", "T2 sequence (Q61180 232-699)": "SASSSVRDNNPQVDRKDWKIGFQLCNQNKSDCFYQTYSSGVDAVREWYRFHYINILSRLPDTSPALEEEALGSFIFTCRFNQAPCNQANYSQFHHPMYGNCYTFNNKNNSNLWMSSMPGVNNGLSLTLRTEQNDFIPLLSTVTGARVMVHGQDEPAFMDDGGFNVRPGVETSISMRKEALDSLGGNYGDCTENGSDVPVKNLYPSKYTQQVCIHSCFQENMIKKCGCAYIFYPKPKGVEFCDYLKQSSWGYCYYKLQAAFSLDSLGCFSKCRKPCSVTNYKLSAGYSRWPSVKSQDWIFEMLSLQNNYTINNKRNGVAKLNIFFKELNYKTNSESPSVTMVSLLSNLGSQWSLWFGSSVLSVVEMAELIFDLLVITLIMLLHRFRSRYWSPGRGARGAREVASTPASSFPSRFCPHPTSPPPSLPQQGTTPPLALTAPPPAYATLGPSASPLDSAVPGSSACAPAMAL", "T2 sequence (Q9WU38 whole entry)": "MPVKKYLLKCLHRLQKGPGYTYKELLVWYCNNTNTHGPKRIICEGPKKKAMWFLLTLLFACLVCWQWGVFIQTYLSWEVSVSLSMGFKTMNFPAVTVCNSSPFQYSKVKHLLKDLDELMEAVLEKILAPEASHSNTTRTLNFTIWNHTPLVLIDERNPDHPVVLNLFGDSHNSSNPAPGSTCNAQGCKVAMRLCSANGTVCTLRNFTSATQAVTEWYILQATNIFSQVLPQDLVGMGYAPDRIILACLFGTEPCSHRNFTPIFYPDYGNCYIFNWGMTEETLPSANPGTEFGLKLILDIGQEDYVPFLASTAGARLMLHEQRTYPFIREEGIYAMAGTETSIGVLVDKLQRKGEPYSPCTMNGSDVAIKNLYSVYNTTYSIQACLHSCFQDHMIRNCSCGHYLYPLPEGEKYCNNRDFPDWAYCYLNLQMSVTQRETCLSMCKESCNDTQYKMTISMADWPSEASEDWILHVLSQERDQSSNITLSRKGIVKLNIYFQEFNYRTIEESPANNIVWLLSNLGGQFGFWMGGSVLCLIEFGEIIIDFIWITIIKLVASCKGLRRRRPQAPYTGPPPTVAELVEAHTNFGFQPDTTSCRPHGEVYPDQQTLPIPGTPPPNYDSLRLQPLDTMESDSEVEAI", "T2 sequence (Q9WU39 1-143)": "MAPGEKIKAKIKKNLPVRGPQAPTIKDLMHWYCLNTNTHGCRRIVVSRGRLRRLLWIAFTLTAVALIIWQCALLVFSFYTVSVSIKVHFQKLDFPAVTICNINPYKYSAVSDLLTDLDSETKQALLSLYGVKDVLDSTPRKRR", "T2 sequence (Q9WU39 187-655)": "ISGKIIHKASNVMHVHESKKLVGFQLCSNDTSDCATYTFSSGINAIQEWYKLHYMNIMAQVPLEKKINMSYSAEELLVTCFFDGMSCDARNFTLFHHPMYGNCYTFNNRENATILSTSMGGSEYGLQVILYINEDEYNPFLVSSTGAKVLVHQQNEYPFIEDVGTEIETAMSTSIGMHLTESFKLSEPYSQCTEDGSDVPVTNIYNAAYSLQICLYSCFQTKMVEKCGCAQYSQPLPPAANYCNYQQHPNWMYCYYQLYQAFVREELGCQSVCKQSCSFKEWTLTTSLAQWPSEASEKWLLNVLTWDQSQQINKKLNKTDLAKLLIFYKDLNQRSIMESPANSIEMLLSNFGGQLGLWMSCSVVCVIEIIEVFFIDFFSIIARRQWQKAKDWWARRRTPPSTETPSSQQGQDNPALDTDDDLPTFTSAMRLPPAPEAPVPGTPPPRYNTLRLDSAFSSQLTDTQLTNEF", "test": "Two-electrode voltage clamp in oocytes co-expressing ENaC and prostasin", "assay_type": "cell-based", "conditions": "α-26 1 μM and 10 μM, aprotinin 1 μM present", "excerpt": "Oocyte Expression—cRNAs for α, β, γ mouse ENaC (wild-type and mutant) subunits and mouse prostasin were synthesized with T3 or T7 m-Message mMachineTM (Ambion, Austin, Tex.). Subunits carrying furin cleavage consensus site mutations and the corresponding wild-type subunits have amino-terminal HA and carboxyl-terminal V5 tags (Hughey, R. P., Bruns, J. B., Kinlough, C. L., Harkleroad, K. L., Tong, Q., Carattino, M. D., Johnson, J. P., Stockand, J. D., and Kleyman, T. R. (2004) J. Biol. Chem. 279, 18111-18114 18). Stage V-VI Xenopus laevis oocytes were pretreated with 1.5 mg/ml of type IV collagenase and injected with 0.5-2 ng of cRNA/subunit. Injected oocytes were maintained as previously reported (Carattino, M. D., Hill, W. G., and Kleyman, T. R. (2003), Arachidonic Acid Regulates Surface Expression of Epithelial Sodium Channels, J Biol. Chem. 278, 36202-36213 29).\nTwo-electrode Voltage Clamp—Two-electrode voltage clamp (TEV) was performed as previously described (Carattino, M. D., Hill, W. G., and Kleyman, T. R. (2003) J Biol. Chem. 278, 36202-36213 29). The extracellular solution (TEV solution) was (in mM): 110 NaCl, 2 KCl, 1.54 CaCl2, 10 HEPES, pH 7.4, or otherwise as indicated. […] ENaC-mediated whole cell Na^+ currents, at −60 mV,were defined as the amiloride-sensitive component of the current. […]"}}}
{"substance": "Ac-DLRGALPHPLQRLRTPPPPNPARSAR-NH2 [α-26]", "values": [{"measurement": "IC50", "setting": "[1]", "value": "50 to 100", "unit": "µM"}, {"measurement": "effect of prostasin co-expression on α-26-dependent inhibition of ENaC", "setting": "[2]", "value": "significantly reduced the efficacy"}]}
